These results are taken from patent publication US11458146B2, “Compositions and methods for the treatment of myelin related and inflammation related diseases or disorders” (Duke University, priority 2017, dated 2022).

Assay [1] concerns Primary neural stem cells. Put plainly: in vitro screening method for oligodendrogenesis (CNPase+ cell count). The class given is cell-based, mice. To be noted: exposed five days, differentiated 15-18 days; compared to media control. The text has this: Primary neural stem cells generated from mice were screened for oligodendrogenic potential after treatment with 20HC, 22HC, 24HC, 25HC, and 27HC. Neural stem cells in 8-well chamber slides were exposed to the indicated oxysterol for five days, and then allowed to differentiate for 15-18 days. Following differentiation, cells were fixed and stained for oligodendrocyte markers CNPase and myelin basic protein (MBP) (FIG. 6A). Stained cells were randomly sampled with a 40× objective, using Stereo Investigator software to eliminate bias, while quantifying the number of oligodendrocytes. Each condition was sampled at 10-12 computer selected sites. Images were used to count the number of nucleated CNPase+ cells per high power field (HPF).

For a further assay, the target named is smoothened (SMO) (Homo sapiens, UniProt Q99835). The following applies: fibroblast cell culture systems; recent studies; cited from earlier work.
Another assay concerns naïve CD4+ T cells. The experiment in a line: TH17 polarization of naïve CD4+ T cells in vitro (flow cytometry, IL-17 production). The class given is cell-based, rodent. The following applies: for cells polarized into the TH17 population: control cells 7.8%; for TH17 polarization (in words, FIG. 8): flow cytometry. As to the method: Naïve CD4 T cells were isolated from rodent spleen tissue using CD4 magnetic beads. CD4+ lymphocytes were cultured on plates coated with anti-CD3 antibody and anti-CD28 antibodies in the presence of rTGFb, rIL-6, and rIL-23 for 5 days. Four hours prior to flow cytometry analysis, the cells were stimulated with PMA, ionomycin, and Brefeldin A. The cells were then analyzed for IL-17 production (FIG. 8, wherein CD4+ T cell culture in the presence of CD3/CD28-coated beads with IMDM media containing rTGFβ (4 ng/ml), rIL-6 (20 ng/ml), rIL-23 (50 ng/ml), anti-IL-4 Ab, and anti-IFNg Ab with or without GW or HC for 5 days. PMA (50 ng/ml), Ionomycin (500 ng/ml) for […], and Brefeldin A (10 μg/ml) for last 3 h)). 7.8% of the control cells polarized into the TH17 population. The LXR agonist GW3965 prevented TH17 polarization (2.6%).
On the technique in general: Flow cytometry measures light scatter and fluorescence of single cells or particles in a stream.

The subject of assay [2] is Primary neural stem cells. The experiment in a line: oligodendrocyte differentiation from neural stem cells, western blot for CNPase and MBP. The class given is cell-based. To be noted: 1 μm and 0.5 μm for five days, then differentiation for 18 days. As to the method:
FIG. 5 is a western blot analysis. Stem cells were treated with oxysterols at doses indicated for 5 days then allowed to differentiate for 18 days. Protein lysates were probed for oligodendrocyte-associated proteins CNPase and myelin basic protein (MBP). Primary neural stem cells were treated with 24-hydroxycholesterol and 25-hydroxycholesterol at 1 μm and 0.5 μm for five days, then allowed to differentiate for 18 days. Protein lysates were probed for oligodendrocyte-associated proteins CNPase and myelin basic protein (MBP).
(Immunoblotting shows a protein as a band on a membrane.)

The test system of assay [3] is perinatal white matter injury in neonatal mice. Put plainly: mouse model of perinatal white matter injury (simulated bowel perforation and sepsis). It counts as in vivo. As to the method:
Perinatal bowel perforation is a common complication of premature birth and is strongly linked to myelin injury and cerebral palsy. A mouse model of perinatal white matter injury was developed. The model simulates a perinatal bowel perforation and sepsis by injection of donor cecal contents into the peritoneal cavity of neonatal mice on postnatal day 5. Using this model, the efficacy of 25-hydroxycholesterol in reversing white matter injury was tested. […] Breast-milk associated 25-HC reversed diffuse white matter injury. The cells were stained with oligodendrocyte marker CC1. 40× high power fields (PHF) were imaged.

Assay [4] has as its system EAE induced with MOG35-55 peptide in C57BL/6J mice. Put plainly: experimental allergic encephalitis (EAE) mouse model. The class given is in vivo. As to the method:
EAE was induced using myelin oligodendrocyte glycoprotein (MOG35-55) peptide using standard approaches (see, e.g., Bittner et al., J. Vis. Exp., 86: 51275 (2014); and Miller et al., Curr Protoc Immunol., Unit-15.1 (2007)) in 15 wild-type 8 week old C57BL/6J mice. TH17 T cell populations are pathogenic in the EAE model and have been implicated in multiple sclerosis (MS). Seven mice (3 male, 4 female) proceeded without further intervention while 8 mice (3 female and 5 male) were given daily 125 μL subcutaneous injections of 20HC resuspended in corn oil (10 mg/mL) two days prior to EAE induction and through day 14, just prior to peak clinical severity. Mice were scored daily for the development of ascending paralysis that is indicative of the development of EAE. In vivo treatment of mice with 20HC (50 mg/kg/day) disrupted the development of MS-like symptoms in the EAE model, as shown in FIGS. 9A and 9B.

The next assay relates to NF-κB. The experiment in a line: NF-κB activation in LPS-treated primary splenic monocytes (western blot). The class given is cell-based, mice. To be noted: 1 μm 20HC for 24 hours, then 500 ng/mL LPS. As to the method:
FIG. 7 is a Western blot showing the 20HC inhibition of NFκB pathway in primary splenic monocytes. Primary monocytes were exposed to media, 20HC (24 hour)+LPS (500 ng/ml), or LPS alone for 4 hours. 20HC prevented IκB degradation and p65 phosphorylation in LPS treated cells.
Splenocytes where harvested from postnatal day 12 mice. Monocytes were negatively selected using anti-CD3, CD19 magnetic beads. Cells were treated with vehicle control (DMSO) or 1 μm 20HC for 24 hours. After exposure to 20HC, monocytes were treated with 500 ng/mL of lipopolysaccharide (LPS) to activate the TLR4 receptor and activate NF-κB. Compared to control cells, LPS-treated cells degraded I-κB and phosphorylated p65 consistent with NF-κB activation (FIG. 7). I-κB degradation and phosphorylation of p65 was blocked in 20HC-treated monocytes.

Entries after “also recorded” stand apart in the source; their conditions may differ.

Chain of smoothened (SMO) (Q99835 28-787): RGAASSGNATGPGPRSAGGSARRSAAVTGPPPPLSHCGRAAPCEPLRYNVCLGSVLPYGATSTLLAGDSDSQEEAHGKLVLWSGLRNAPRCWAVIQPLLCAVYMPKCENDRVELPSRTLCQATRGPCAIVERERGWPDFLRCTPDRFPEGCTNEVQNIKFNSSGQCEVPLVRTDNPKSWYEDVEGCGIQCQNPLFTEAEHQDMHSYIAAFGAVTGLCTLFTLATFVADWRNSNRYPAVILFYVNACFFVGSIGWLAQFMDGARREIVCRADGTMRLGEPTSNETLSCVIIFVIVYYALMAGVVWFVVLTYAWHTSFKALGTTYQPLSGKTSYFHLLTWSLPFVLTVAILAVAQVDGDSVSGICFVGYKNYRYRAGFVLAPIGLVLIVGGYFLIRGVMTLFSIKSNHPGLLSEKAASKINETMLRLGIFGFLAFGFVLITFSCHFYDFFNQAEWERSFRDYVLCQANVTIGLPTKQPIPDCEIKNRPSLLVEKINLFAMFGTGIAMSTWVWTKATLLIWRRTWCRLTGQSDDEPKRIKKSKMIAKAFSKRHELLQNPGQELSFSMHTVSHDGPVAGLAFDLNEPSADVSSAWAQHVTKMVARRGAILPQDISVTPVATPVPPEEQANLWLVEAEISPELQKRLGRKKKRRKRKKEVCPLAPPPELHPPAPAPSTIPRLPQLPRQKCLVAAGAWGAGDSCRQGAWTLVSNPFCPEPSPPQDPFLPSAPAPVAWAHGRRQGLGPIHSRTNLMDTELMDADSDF

With `C[C@@H](CO)CCC[C@@H](C)[C@H]1CC[C@H]2[C@@H]3CC=C4C[C@@H](O)CC[C@]4(C)[C@H]3CC[C@]12C` [27HC, 27-hydroxycholesterol], the “number of oligodendrocytes (nucleated CNPase+ cells per high power field)” value in assay [1] is given as “did not increase”.
On to `CC(C)CCC(O)[C@@H](C)[C@H]1CC[C@H]2[C@@H]3CC=C4C[C@@H](O)CC[C@]4(C)[C@H]3CC[C@]12C` (stereo partly drawn) [22HC, 22-hydroxycholesterol], for which the “number of oligodendrocytes (nucleated CNPase+ cells per high power field)” value in assay [1] is “increased number”.
Take `CC(C)CC[C@@H](O)[C@@H](C)[C@H]1CC[C@H]2[C@@H]3CC=C4C[C@@H](O)CC[C@]4(C)[C@H]3CC[C@]12C` [22α-hydroxycholesterol]: the “activation of the SHH pathway via direct binding to smoothened (SMO)” value at smoothened (SMO) was “activate”.
As for `CC(C)C(O)CC[C@@H](C)[C@H]1CC[C@H]2[C@@H]3CC=C4C[C@@H](O)CC[C@]4(C)[C@H]3CC[C@]12C` (stereo partly drawn) [24HC, 24-hydroxycholesterol], the “number of oligodendrocytes (nucleated CNPase+ cells per high power field)” value in assay [1] is “increased number”. Further, the “cells polarized into the TH17 population” value in the assay on naïve CD4+ T cells (5 days culture) stood at 2.1%. The “TH17 polarization (in words, FIG. 8)” value in the assay with naïve CD4+ T cells is reported as “decrease”. In addition, the “expression of oligodendrocyte-associated proteins CNPase and MBP” value in assay [2] was “induced expression”.
On to `C[C@H](CCCC(C)(C)O)[C@H]1CC[C@H]2[C@@H]3CC=C4C[C@@H](O)CC[C@]4(C)[C@H]3CC[C@]12C` [25HC, 25-hydroxycholesterol], for which the “number of oligodendrocytes (nucleated CNPase+ cells per high power field)” value in assay [1] is recorded as “increased number”. The “myelin integrity (fluoromyelin staining)” value in assay [3] (100 mg/kg/day for five days, compared to septic injured mice that received vehicle control) was “improved myelin integrity”. Also, the “diffuse white matter injury” value in assay [3] (septic injured neonatal mice) is recorded as “reversed”. For the same compound, the “numbers of mature oligodendrocytes (CC1+Olig2+)” value in assay [3] (stereology, compared to septic injured mice, p<0.0001) is reported as “significantly higher”. Besides, in the assay on naïve CD4+ T cells (higher doses), the “cells polarized into the TH17 population” value was found to be 2.7%. In addition, in the assay with naïve CD4+ T cells (low doses), the “cells polarized into the TH17 population” value turned out to be 23.6% and the “TH17 polarization (in words, FIG. 8)” value is listed as “promote”. Moreover, the “expression of oligodendrocyte-associated proteins CNPase and MBP” value in assay [2] is “induced expression”.
`CC(C)CCC[C@](C)(O)[C@H]1CC[C@H]2[C@@H]3CC=C4C[C@@H](O)CC[C@]4(C)[C@H]3CC[C@@]21C` [20HC, 20α-Hydroxycholesterol]: the “number of oligodendrocytes (nucleated CNPase+ cells per high power field)” value in assay [1] is recorded as “increased number”. Besides, the “cells polarized into the TH17 population” value in the assay on naïve CD4+ T cells (5 days culture) is reported as 2.2%. Further, the “TH17 polarization (in words, FIG. 8)” value in the assay with naïve CD4+ T cells is “decrease”. Moreover, in assay [4] (50 mg/kg/day subcutaneous, from two days prior to EAE induction through day 14), the “development of MS-like symptoms” value is given as “disrupted”. Also, the EAE clinical score result in assay [4] (compared to control mice over 46 days, p≤0.05) was “attenuation”. In addition, in the assay with NF-κB, the I-κB degradation entry is on record as “blocked; also recorded: prevented” and the “phosphorylation of p65” value was “blocked; also recorded: prevented”. Further, on smoothened (SMO), the “activation of the SHH pathway via direct binding to smoothened (SMO)” value is listed as “activate”.
As for `O=C(O)Cc1cccc(OCCCN(Cc2cccc(C(F)(F)F)c2Cl)CC(c2ccccc2)c2ccccc2)c1` [GW3965, reference compound], the “cells polarized into the TH17 population” value with naïve CD4+ T cells (5 days culture) turned out to be 2.6%.
